Structures can show the parent of a compound that is named as a salt.
Target: T1, H3 histaminergic receptors (Rattus norvegicus, UniProt Q9QYN8)
Assay: not given
Details: histamine at a concentration of 1 μM; cited from earlier work

T1 sequence (Q9QYN8 whole entry): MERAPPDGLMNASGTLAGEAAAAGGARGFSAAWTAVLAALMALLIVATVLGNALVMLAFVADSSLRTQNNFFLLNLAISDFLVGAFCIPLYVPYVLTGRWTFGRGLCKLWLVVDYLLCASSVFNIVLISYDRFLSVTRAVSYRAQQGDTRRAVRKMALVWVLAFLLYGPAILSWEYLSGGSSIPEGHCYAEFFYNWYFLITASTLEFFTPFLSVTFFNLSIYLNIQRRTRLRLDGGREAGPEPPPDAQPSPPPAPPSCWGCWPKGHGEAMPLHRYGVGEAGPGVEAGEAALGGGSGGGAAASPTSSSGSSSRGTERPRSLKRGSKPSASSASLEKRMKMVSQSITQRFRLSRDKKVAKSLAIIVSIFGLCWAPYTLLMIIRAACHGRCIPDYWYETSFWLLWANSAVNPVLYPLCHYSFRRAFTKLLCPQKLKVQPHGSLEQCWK

Row | SMILES | Inhibition of release by exogenous histamine
1 | NCCc1c[nH]cn1 [histamine] | approximately 50%

Target: T1, H3 histaminergic receptors
Assay: Reversal by H3 antagonists of exogenous histamine-induced inhibition of histamine release in sections of rat cerebral cortex (Arrang et al.)
Assay type: biochemical
Details: not given
Description: This method employs sections of rat cerebral cortex, and made possible the pharmacological characterisation of the H3 receptors (Nature, 1987, 327; 117-123).
This effect is progressively reversed in the presence of H3 antagonists such as the compounds of the invention, added at increasing concentrations. […]

Row | Ki [nM] | SMILES
2 | 35 | O=C(CCCc1cccs1)N1CCC(c2c[nH]cn2)CC1 [Compound 43]
3 | 47 | OC(=CCCc1ccccc1)N1CCC(c2c[nH]cn2)CC1 [Compound 59, 1-(1-Hydroxy-4-phenyl-1-buten-1-yl)-4-(4-imidazolyl)piperidine (Dihydrochloride)]
4 | 65 | O=C(CCCCCCc1ccccc1)N1CCC(c2c[nH]cn2)CC1 [Compound 48]
5 | 77 | O=C(NCCCc1ccccc1)N1CCC(c2c[nH]cn2)CC1 [Compound 83]
6 | 20 | O=C(C1CC1c1ccccc1)N1CCC(c2c[nH]cn2)CC1 (centres unmarked) [Compound 13]
7 | 120 | OC(=CCCCCCCCCCOc1ccccc1)N1CCC(c2c[nH]cn2)CC1 [Compound 60, 1-(1-Hydroxy-11-phenoxy-1-undecen-1-yl)-4-(4-imidazolyl)piperidine (dihydrochloride)]
8 | 68 | O=C(NCCC1CCCCC1)N1CCC(c2c[nH]cn2)CC1 [Compound 77]
9 | 84 | O=C(CCc1ccccc1)N1CCC(c2c[nH]cn2)CC1 [Compound 38, 1-(3-Phenylpropionyl)-4-(1H-imidazol-4-yl)piperidine (Oxalate)]
10 | 23 | O=C(CC1CC2CCC1C2)N1CCC(c2c[nH]cn2)CC1 (centres unmarked) [Compound 23, 1-(Norbornylmethylcarbonyl)-4-(1H-imidazol-4-yl)piperidine]

Row | SMILES | Ki [nM]
11 | O=C(CC1CCC1)N1CCC(c2c[nH]cn2)CC1 [Compound 20] | 59
12 | CCCCCCC(=O)N1CCC(c2cnc[nH]2)CC1 [Compound 1] | 48

Same assay, conditions: read-out: Apparent dissociation constant (Ki) as histamine antagonists at receptors of rat brain; sections of rat cerebral cortex; exogenous histamine 1 μM; apparent Ki calculated from IC50 according to Cheng and Prusoff with histamine EC=0.1 μM

Row | Ki [nM] | SMILES
13 | 34 | O=C(CCCOc1ccccc1)N1CCC(c2cn(C(=O)Nc3ccc(Cl)cc3Cl)cn2)CC1 [Compound 92, 1-(4-Phenoxybutylryl)-4-[1-(2,4-Dichlorophenylaminocarbonyl)-4-imidazolyl]piperidine]
14 | 63 | O=C(N1CCC(c2c[nH]cn2)CC1)C12CC3CC(CC(C3)C1)C2 [Compound 8]

Reference: patent US5290790A, “4-(4-imidazolyl) piperidines substituted at position 1, their preparation and also their therapeutic applications” (National De La Sante et De La Recherche Medicale, priority 1990, dated 1994)
